Source: ChEMBL document CHEMBL1201862, “PubChem BioAssay data set” (2004)
Activity calls are given as the source filed them.

What was measured:
[1] = molecular target: Serine/threonine-protein kinase pim-3 (Homo sapiens, UniProt Q86V86); assay type: functional;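 also: value obtained as one member of a broad kinase panel profiling effort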
[2] = molecular target: Serine/threonine-protein kinase pim-1 (Homo sapiens, UniProt P11309); assay type: functional
Aurora kinase B = Aurora kinase B (Homo sapiens, UniProt Q96GD4); assay type: functional
[3] = molecular target: Serine/threonine-protein kinase 17A (Homo sapiens, UniProt Q9UEE5); assay type: functional
P388 = assay: cells; assay type: functional; conditions: Mus musculus
SN12K1 = assay: cells; assay type: functional; conditions: Homo sapiens
[4] = molecular target: T1, High affinity choline transporter 1 (Homo sapiens, UniProt Q9GZV3); assay: CHT inhibitors, dose response, cell-based, 10-point CRC, membrane potential dye (AID 588401); assay type: functional;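 also: membrane potential dye fluorescence of choline-evoked depolarization via CHT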
T1 sequence (Q9GZV3 whole entry): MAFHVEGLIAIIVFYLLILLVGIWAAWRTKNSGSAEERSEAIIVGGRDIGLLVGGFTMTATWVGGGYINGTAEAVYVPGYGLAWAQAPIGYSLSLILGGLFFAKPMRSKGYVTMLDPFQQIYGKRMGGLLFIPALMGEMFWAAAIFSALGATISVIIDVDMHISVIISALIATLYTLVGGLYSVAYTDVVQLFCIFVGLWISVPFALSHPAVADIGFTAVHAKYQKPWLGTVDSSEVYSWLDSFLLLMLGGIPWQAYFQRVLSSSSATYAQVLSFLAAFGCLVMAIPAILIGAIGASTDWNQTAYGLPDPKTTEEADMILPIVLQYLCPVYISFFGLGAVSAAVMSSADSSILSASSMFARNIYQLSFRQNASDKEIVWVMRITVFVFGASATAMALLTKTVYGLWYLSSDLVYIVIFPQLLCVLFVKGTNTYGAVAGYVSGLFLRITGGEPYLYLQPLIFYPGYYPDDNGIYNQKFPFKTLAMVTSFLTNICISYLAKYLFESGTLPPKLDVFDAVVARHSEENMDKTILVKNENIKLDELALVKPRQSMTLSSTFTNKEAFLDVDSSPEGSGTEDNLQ

P388/ADR = assay: cells; assay type: functional; conditions: Mus musculus
Aspartyl aminopeptidase = Aspartyl aminopeptidase (Plasmodium falciparum 3D7, UniProt Q8I2J3)
[5] = molecular target: T1, High affinity choline transporter 1; assay: CHT inhibitors, dose response, cell-based, 5-point CRC, membrane potential dye (AID 504840); assay type: functional
Procathepsin L = Procathepsin L (Homo sapiens, UniProt P07711)
[6] = molecular target: T2, Heat shock factor protein 1 (Mus musculus, UniProt P38532); assay: inhibition of MG132-induced HSE-luciferase signal, confirmation, cell-based, NIH3T3, luminescence, dose retest (AID 2382); assay type: functional;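 also: NIH3T3 fibroblasts with HSF1-driven luciferase reporter stressed by proteasome inhibitor MG132; luminescence from HSF1-driven luciferase expression after 8 hours of MG132 stress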
T2 sequence (P38532 whole entry): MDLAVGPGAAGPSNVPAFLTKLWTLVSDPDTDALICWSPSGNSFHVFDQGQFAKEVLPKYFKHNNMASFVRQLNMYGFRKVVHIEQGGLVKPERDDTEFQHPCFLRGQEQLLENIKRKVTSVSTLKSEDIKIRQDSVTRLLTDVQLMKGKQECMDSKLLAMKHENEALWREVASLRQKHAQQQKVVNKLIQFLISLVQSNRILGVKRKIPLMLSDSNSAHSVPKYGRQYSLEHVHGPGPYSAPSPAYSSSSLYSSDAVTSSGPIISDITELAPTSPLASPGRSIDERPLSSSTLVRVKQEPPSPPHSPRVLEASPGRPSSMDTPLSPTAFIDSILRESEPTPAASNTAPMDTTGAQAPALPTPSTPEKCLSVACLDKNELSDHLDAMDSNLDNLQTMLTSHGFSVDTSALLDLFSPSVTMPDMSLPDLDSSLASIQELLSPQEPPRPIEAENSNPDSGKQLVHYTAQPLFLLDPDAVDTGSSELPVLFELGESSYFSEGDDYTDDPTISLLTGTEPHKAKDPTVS

[7] = molecular target: Luciferin 4-monooxygenase (Photinus pyralis, UniProt P08659); assay: firefly luciferase enzyme inhibitors, dose response, biochemical, dry powder samples, plate reader (AID 588451)
[8] = Shn3 3'UTR reporter inhibitors, dose response, cell-based, Clone20 osteoblasts, firefly luciferase, cherry-picked (AID 624132); assay type: functional;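 also: firefly luciferase luminescence from reporter carrying the Shn3 3'UTR in osteoblasts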
H4 [9] = assay: Inhibitors of Prion Protein 5' UTR mRNA Measured in Cell-Based System Using Plate Reader - 2078-01_Inhibitor_Dose_DryPowder_Activity. [Related pubchem assays (depositor defined):AID488894]; assay type: functional; conditions: Homo sapiens
[10] = cytotoxicity in HEK-293T cells, dose response, cytotoxicity control for TCR NF-kB inhibitor project, luminescence, T-cell screen hits (AID 489026); assay type: functional, cell-based;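 also: cells exposed to compound about 14 hours before the viability readout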
H4 [11] = assay: inhibitors of control reporter signal in H4 cells – cell-based, plate reader, dry powder samples, counter-screen for prion reporter project, dose response (AID 540255); assay type: functional; conditions: Homo sapiens
[12] = molecular target: T3, Microphthalmia-associated transcription factor (Homo sapiens, UniProt O75030); assay: TRPM1 promoter luciferase signal decrease, dose response, MITF inhibitor project, cell-based, SK-MEL-5, cherry-picked, set 3 (AID 493073); assay type: functional
T3 sequence (O75030 whole entry): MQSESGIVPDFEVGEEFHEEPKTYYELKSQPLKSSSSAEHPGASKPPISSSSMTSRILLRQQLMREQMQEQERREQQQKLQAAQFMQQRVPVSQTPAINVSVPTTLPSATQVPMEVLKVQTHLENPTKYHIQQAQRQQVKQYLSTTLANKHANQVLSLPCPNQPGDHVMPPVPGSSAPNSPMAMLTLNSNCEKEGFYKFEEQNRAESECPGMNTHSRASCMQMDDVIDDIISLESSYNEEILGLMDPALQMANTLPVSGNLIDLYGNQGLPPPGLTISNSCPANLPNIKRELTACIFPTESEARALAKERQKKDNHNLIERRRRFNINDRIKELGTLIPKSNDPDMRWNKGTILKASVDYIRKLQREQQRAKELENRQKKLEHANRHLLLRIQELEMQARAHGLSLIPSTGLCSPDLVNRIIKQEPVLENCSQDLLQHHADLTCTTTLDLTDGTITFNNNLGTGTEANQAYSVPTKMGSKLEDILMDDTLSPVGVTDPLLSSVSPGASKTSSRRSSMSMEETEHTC

H4 [13] = assay: Amyloid Precursor 5' UTR neuroblastoma cell reporter line Measured in Cell-Based System Using Plate Reader - 2078-04_Inhibitor_Dose_DryPowder_Activity. [Related pubchem assays (depositor defined):AID488894]; assay type: functional; conditions: Homo sapiens
[14] = molecular target: 72 kDa type IV collagenase (Homo sapiens, UniProt P08253); assay: Dose Response validation of uHTS RPN11 inhibitor hits using a MMP-2 Fluorescence assay.; assay type: functional
[15] = molecular target: 26S proteasome non-ATPase regulatory subunit 14 (Homo sapiens, UniProt O00487); assay: inhibition of proteasome subunit RPN11 – biochemical, fluorescence polarization, uHTS hits, confirmation (AID 602368); assay type: functional
Prothrombin = Prothrombin (Bos taurus, UniProt P00735); assay: thrombin inhibition, dose response, biochemical, fluorescence polarization, uHTS hits (AID 602369); assay type: functional
[16] = molecular target: DNA dC->dU-editing enzyme APOBEC-3A (Homo sapiens, UniProt P31941); assay: SAR analysis of small molecule inhibitors of APOBEC3A DNA Deaminase via a fluorescence-based single-stranded DNA deaminase assay.; assay type: functional; conditions: read-out: IC50_Mean
[17] = molecular target: DNA dC->dU-editing enzyme APOBEC-3G (Homo sapiens, UniProt Q9HC16); assay: APOBEC3G deaminase inhibitors, SAR follow-up, biochemical, fluorescence, single-stranded DNA substrate (AID 602136); assay type: functional; conditions: read-out: IC50_Mean
[18] = molecular target: Cyclin-dependent kinase 19 (Homo sapiens, UniProt Q9BWU1); assay: Navigating the Kinome. Panel member name: CDC2L6; assay type: functional
[19] = molecular target: Cell division cycle 7-related protein kinase (Homo sapiens, UniProt O00311); assay type: functional;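 also: value obtained from a kinome-wide kinase panel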
[20] = molecular target: Melanin-concentrating hormone receptor 1 (Homo sapiens, UniProt Q99705); assay: Late-stage fluorescence-based counterscreen for antagonists of the G-protein coupled receptor 7 (GPR7): cell-based dose response assay to identify antagonists of the melanin-concentrating hormone receptor 1 (MCHR1) Set 5.; assay type: functional
[21] = molecular target: T4, Neuropeptides B/W receptor type 1 (Homo sapiens, UniProt P48145); assay: GPR7 antagonist potency, late-stage follow-up, cell-based, fluorescence, dose response, set 5 (AID 588566); assay type: functional
T4 sequence (P48145 whole entry): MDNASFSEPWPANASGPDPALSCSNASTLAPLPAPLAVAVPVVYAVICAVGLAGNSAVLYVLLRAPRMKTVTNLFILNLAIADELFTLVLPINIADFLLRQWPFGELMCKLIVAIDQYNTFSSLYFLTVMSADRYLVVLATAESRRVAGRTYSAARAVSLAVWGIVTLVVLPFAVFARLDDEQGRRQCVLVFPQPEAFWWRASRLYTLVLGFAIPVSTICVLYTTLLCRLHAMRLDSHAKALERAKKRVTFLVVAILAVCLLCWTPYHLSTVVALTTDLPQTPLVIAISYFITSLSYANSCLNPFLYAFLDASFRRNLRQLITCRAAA

Orexin receptor type 2 [22] = molecular target: T5, Orexin receptor type 2 (Homo sapiens, UniProt O43614); assay: Counterscreen assay for antagonists of the orexin 1 receptor (OX1R; HCRTR1): Homogeneous Time Resolved Fluorescence (HTRF)-based cell-based dose response assay for antagonists of the orexin 2 receptor (OX2R; HCRTR2), run by assay provider.; assay type: functional
CHO-K1 = assay: (§1) Counterscreen for antagonists of the orexin 1 receptor (OX1R; HCRTR1): Homogeneous time resolved fluorescence (HTRF)-based cell-based dose response assay to identify antagonists of the parental CHO-K1 cell line. [Related pubchem assays (depositor defined):AID434989, AID435008, AID463079, AID485270, AID492963, AID492964, AID492965, AID493232, AID504699, AID504701]; assay type: functional; conditions: Cricetulus griseus
[23] = molecular target: T6, Orexin/Hypocretin receptor type 1 (Homo sapiens, UniProt O43613); assay: (§2) Fluorescence-based cell-based high throughput dose response assay for antagonists of the orexin 1 receptor (OX1R; HCRTR1). [Related pubchem assays (depositor defined):AID434989, AID435008, AID463079, AID485270, AID492963, AID492964, AID492965, AID493232, AID504717, AID504718]; assay type: functional
[24] = as §1, with “Fluorescence-based” for “Homogeneous time resolved fluorescence (HTRF)-based”, “cell-based high throughput” for “cell-based”, “CHO” for “CHO-K1”; assay type: functional
[25] = molecular target: T6, Orexin/Hypocretin receptor type 1; assay: as §2, with “Homogeneous Time Resolved Fluorescence (HTRF)-based” for “Fluorescence-based”; assay type: functional
Orexin receptor type 2 [26] = molecular target: T5, Orexin receptor type 2; assay: Counterscreen assay for antagonists of the orexin 1 receptor (OX1R; HCRTR1): Fluorescence-based cell-based dose response assay for antagonists of the orexin 2 receptor (OX2R; HCRTR2), run by assay provider.; assay type: functional

T5 sequence (O43614 whole entry): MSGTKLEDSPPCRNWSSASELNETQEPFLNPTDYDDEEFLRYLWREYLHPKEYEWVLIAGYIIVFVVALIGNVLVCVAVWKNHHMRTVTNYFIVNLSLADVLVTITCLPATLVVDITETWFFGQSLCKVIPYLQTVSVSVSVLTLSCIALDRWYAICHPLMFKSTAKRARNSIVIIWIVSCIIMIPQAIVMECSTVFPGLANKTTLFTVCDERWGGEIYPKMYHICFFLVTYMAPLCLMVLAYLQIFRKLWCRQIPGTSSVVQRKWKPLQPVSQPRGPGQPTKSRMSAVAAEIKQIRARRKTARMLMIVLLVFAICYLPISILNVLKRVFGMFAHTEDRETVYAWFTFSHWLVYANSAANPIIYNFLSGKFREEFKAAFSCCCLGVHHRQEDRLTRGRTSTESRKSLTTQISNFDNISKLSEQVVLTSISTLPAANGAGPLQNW
T6 sequence (O43613 whole entry): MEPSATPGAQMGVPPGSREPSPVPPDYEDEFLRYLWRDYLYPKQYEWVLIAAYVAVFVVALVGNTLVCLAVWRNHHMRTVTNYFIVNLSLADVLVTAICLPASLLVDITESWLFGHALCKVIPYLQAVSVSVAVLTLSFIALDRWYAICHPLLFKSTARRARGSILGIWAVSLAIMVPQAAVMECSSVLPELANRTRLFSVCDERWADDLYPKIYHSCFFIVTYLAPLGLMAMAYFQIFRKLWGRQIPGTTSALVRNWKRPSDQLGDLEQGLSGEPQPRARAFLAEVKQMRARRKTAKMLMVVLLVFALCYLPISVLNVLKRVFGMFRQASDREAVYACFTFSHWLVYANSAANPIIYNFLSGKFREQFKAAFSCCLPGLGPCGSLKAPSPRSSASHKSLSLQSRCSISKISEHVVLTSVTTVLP
Chain of Melanin-concentrating hormone receptor 1 (Q99705 whole entry): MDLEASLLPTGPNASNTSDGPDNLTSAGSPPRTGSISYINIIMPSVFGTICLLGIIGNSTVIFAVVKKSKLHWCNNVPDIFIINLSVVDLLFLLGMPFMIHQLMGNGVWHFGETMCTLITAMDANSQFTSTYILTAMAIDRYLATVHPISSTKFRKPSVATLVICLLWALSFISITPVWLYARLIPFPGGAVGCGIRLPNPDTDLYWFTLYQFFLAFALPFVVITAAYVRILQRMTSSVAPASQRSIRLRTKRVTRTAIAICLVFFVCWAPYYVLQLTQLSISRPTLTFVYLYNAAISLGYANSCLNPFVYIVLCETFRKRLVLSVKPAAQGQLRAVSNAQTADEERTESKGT
Chain of Serine/threonine-protein kinase 17A (Q9UEE5 whole entry): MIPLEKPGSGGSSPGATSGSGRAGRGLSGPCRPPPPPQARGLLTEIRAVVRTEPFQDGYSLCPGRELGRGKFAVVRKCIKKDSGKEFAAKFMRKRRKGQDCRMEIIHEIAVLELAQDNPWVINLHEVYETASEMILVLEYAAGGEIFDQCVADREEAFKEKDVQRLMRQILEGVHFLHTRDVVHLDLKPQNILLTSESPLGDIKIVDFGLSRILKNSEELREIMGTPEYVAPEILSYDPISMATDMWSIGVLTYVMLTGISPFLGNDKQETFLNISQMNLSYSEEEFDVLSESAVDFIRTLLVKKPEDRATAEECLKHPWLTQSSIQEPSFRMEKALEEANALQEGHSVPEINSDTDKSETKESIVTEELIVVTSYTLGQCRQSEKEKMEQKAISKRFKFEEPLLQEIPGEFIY
Chain of DNA dC->dU-editing enzyme APOBEC-3G (Q9HC16 whole entry): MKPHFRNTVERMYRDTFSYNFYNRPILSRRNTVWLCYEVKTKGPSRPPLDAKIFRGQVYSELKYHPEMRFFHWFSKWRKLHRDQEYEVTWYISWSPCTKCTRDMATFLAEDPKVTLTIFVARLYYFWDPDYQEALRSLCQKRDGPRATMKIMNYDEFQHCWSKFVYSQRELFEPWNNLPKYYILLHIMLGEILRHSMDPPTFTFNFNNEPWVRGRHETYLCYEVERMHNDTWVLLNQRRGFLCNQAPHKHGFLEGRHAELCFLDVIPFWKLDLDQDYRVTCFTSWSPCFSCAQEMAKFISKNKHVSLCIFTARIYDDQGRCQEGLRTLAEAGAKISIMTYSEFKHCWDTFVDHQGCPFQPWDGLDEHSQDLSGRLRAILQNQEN
Chain of Aspartyl aminopeptidase (Q8I2J3 whole entry): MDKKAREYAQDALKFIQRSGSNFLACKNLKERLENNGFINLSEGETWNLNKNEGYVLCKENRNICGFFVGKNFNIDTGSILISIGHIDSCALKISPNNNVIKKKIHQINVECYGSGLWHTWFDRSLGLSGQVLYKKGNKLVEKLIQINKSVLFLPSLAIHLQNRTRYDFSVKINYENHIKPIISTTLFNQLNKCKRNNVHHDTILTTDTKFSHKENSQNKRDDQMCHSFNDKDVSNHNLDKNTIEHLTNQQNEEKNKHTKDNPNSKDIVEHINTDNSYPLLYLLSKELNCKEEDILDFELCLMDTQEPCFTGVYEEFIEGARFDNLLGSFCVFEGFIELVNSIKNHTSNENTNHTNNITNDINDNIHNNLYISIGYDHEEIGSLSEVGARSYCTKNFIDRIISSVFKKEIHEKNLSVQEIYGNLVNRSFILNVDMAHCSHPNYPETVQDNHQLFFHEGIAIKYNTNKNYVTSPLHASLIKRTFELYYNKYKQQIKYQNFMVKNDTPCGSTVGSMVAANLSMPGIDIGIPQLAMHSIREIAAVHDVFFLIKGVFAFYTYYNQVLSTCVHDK
Chain of DNA dC->dU-editing enzyme APOBEC-3A (P31941 whole entry): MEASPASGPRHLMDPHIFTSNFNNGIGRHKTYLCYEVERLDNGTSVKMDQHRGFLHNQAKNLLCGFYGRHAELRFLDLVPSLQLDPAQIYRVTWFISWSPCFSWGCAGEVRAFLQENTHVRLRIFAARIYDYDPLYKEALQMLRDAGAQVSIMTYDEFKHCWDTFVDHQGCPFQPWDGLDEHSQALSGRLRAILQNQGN
Chain of 72 kDa type IV collagenase (P08253 whole entry): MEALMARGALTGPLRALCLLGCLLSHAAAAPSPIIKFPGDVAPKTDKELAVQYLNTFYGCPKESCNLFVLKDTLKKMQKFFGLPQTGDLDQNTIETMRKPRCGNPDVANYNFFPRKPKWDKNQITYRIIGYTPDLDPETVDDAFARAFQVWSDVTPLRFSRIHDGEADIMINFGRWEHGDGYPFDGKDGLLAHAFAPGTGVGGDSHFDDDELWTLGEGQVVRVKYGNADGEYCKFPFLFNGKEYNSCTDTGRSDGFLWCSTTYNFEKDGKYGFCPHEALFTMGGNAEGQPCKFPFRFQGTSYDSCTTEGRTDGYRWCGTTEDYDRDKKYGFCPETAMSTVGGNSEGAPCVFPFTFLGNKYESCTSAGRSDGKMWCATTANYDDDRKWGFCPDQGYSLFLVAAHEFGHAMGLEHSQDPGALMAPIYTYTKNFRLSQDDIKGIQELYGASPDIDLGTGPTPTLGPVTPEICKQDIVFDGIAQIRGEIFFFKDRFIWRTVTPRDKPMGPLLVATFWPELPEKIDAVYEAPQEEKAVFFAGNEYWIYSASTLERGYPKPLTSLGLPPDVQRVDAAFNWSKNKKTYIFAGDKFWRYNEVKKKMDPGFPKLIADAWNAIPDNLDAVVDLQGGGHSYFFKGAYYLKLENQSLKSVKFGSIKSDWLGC
Chain of Cell division cycle 7-related protein kinase (O00311 whole entry): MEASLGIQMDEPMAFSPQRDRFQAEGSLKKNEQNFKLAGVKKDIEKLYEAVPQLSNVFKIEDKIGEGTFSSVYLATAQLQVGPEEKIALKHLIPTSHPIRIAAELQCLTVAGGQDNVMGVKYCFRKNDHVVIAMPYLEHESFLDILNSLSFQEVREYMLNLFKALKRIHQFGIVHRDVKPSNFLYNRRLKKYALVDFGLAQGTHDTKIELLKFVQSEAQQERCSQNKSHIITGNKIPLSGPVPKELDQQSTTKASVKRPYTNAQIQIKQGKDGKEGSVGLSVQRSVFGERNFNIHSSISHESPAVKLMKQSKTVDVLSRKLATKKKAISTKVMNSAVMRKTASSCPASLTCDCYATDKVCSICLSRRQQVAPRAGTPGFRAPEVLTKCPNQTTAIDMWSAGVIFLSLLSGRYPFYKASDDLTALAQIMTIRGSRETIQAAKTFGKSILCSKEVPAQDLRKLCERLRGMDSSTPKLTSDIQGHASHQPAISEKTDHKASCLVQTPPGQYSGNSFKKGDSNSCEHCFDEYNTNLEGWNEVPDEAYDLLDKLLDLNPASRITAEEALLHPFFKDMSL
Chain of Luciferin 4-monooxygenase (P08659 whole entry): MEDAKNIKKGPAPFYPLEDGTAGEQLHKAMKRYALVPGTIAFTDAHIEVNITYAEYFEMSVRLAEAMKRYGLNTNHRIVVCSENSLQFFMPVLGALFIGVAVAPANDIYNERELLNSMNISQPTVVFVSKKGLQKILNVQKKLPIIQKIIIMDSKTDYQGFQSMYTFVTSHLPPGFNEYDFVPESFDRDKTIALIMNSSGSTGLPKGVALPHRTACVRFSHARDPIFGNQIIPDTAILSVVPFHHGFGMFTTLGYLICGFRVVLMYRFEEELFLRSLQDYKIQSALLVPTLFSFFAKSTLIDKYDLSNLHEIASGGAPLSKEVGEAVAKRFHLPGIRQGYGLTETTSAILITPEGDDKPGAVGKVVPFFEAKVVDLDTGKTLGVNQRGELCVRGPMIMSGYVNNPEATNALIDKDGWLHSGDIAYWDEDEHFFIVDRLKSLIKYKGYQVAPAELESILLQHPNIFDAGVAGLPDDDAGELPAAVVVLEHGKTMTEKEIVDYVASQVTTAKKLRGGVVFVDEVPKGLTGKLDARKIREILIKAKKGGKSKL

NC(=O)c1ccc2c(ccn2-c2cccc(Cl)c2)c1
Ki [1]: 3.98 µM (active) | Ki [2]: 3.98 µM (active)

CN(C)CC(=O)Nc1n[nH]c2cc(-c3cn(Cc4ccccc4)nn3)ccc12
Ki (Aurora kinase B): 3.16 µM (active) | Ki [3]: 1 µM (active)

O=CN/C=C/c1cc(O)ccc1O [ERBSTATIN]
GI50 (P388): 2.1 µM (inactive) | GI50 (SN12K1): 16.2 µM (inactive) | IC50 [4]: 0.751 µM (active) | GI50 (P388/ADR): 2.02 µM (inactive) | IC50 (Aspartyl aminopeptidase): 3.72 µM (active) | IC50 [5]: 4.17 µM (active) | IC50 (Procathepsin L): > 59.6 µM (not active)

Cc1ccc(NC(=O)c2cc3ccccc3oc2=O)cc1S(=O)(=O)N(C)C
EC50 [6]: < 0.16 µM (active) | AC50 [7]: 0.0893 µM (active) | AC50 [8]: 1.29 µM (active) | AC50 (H4 [9]): 0.011 µM (active) | IC50 [10]: > 80 µM (inactive) | AC50 (H4 [11]): < 0.02 µM (active) | AC50 [12]: 0.03 µM (active) | AC50 (H4 [13]): 0.00125 µM (active)

Cc1ccc(-n2c(-c3ccco3)nc3nc4ccccc4nc32)cc1
IC50 [14]: > 100 µM (inactive) | IC50 [15]: 24.1 µM (active) | IC50 (Prothrombin): 69 µM (active)

Clc1cnc2[nH]c(SCc3nnc(-c4cccs4)o3)nc2c1
IC50 [16]: > 99 µM (inactive) | IC50 [17]: 20.6 µM (inactive)

O=c1cc(-c2ccncc2)[nH]n1-c1ccc([N+](=O)[O-])cc1
Ki [18]: > 100 µM (inactive) | Ki [19]: 0.501 µM (active)

COc1ccc(Sc2cnn(Cc3cccc4ccccc34)c(=O)c2Cl)cc1
IC50 [20]: 18.7 µM (inactive) | IC50 [21]: 1.19 µM (active)

O=C(c1cccc(N2CCNC2=O)c1)N1CCCC(Nc2cccc(F)c2)C1 (centres undefined)
IC50 (Orexin receptor type 2 [22]): > 50 µM (inactive) | IC50 (CHO-K1): > 66.2 µM (inactive) | IC50 [23]: 9.83 µM (active) | IC50 [24]: > 49.7 µM (inactive) | IC50 [25]: 0.922 µM (active) | IC50 (Orexin receptor type 2 [26]): > 88.8 µM (inactive)
